Test results from ChEMBL document CHEMBL1144105, “Antioxidant principles from Ephemerantha lonchophylla” (J Nat Prod, 1999).

Assay: Antioxidant activity against copper-induced lipid peroxidation in human LDL after 1 hr relative to probucol
Format: functional
COc1cc(CCc2ccc(O)c(OC)c2)cc(OC)c1 showed an Activity of 0.9%. In the case of Oc1ccc(/C=C/c2cc(O)cc(O)c2)cc1, the Activity is reported as 0.7%. With CCOC1=CC(=O)c2ccc3cc(OC)cc(O)c3c2C1=O the Activity was 0.2%. COc1cc(CCc2cc(OC)c(O)c(OC)c2)ccc1O showed an Activity of 7.8%. For COC1=CC(=O)c2ccc3cc(OC)cc(O)c3c2C1=O, the Activity was 0.4%. For COC1=Cc2ccc3cc(O)ccc3c2C(=O)C1(O)CC(C)=O (configuration not stated), the Activity was 5.3%. CC(C)(Sc1cc(C(C)(C)C)c(O)c(C(C)(C)C)c1)Sc1cc(C(C)(C)C)c(O)c(C(C)(C)C)c1 showed an Activity of 1%.
